Laboratory results from patent publication US5618795A, “Dibekacin derivatives and arbekacin derivatives active against resistant bacteria, and the production thereof” (Zaidan Hojin Biseibutsu Kagaku Kenkyu Kai, priority 1992, dated 1997).
Converted amounts (≈) assume the structure as drawn. Like-named read-outs stand apart in the source and are kept apart here.

Tests used:
[1] = P. J. L. Daniels et al.; cited from earlier work
[2] = test system: clinically isolated strains of MRSA; experiment: Antibacterial MIC spectra against 50 clinically isolated strains of MRSA; assay type: cell-based, methicillin-resistant Staphylococcus aureus; details: Staphylococcus aureus; for MIC90: 90% of the 50 MRSA strains inhibited, read-out: MIC90; for MIC: range over 50 clinically isolated strains of MRSA, read-out: Antibacterial MIC spectra
Method: (§1) Minimum growth inhibitory concentrations (MIC) of each of 2"-amino-2"-deoxyarbekacin (Compound Ia), 2"-amino-5,2"-dideoxyarbekacin (Compound Ib), 2"-amino-2"-deoxydibekacin (Compound IIa) and 2"-amino-5,2"-dideoxydibekacin (Compound IIb) against various bacteria (20 strains) and against clinically isolated strains of MRSA (50 strains) were determined by standard serial dilution method on Muller-Hinton's agar medium (as estimated after cultivating at 27° C. for 18 hours), and the test results obtained are shown in TABLE 3 and TABLE 4, respectively.
Note:- MIC50 or MIC90 represents the concentration of tested
active compound at which 50% or 90% of the total numbers of the bacterial
strains tested were inhibited from their growth. DKB denotes dibekacin,
(§2) Minimum growth inhibitory concentrations (MIC) of each of 2"-amino-5,2"-dideoxy-5-epi-fluoroarbekacin (Compound XVIa) and 2"-amino-5,2"-dideoxy-5-epi-aminoarbekacin (Compound XVIb) against various bacteria (18 strains) and against clinically isolated strains of MRSA (50 strains) were determined by standard serial dilution method on Muller-Hinton's agar medium (as estimated after cultivation at 27° C. for 18 hours), and the test results obtained are shown in TABLE 5 and TABLE 6, respectively.

Solubility in water = assay type: physicochemical
P. aeruginosa PST1 = experiment: MIC by standard serial dilution method on Muller-Hinton's agar; assay type: cell-based; details: Pseudomonas aeruginosa, Table 3, 27° C., 18 hours
Method: as §1, §2

[3] = test system: Providencia rettgeri GN311; experiment: as above; assay type: cell-based
Method: as §1, §2

S. epidermidis 109 = experiment: as above; assay type: cell-based
Method: as §1, §2

[4] = test system: Pseudomonas aeruginosa A3; experiment: as above; assay type: cell-based
Method: as §1, §2

E. coli JR66/W677 = experiment: as above; assay type: cell-based; details: Escherichia coli, JR66/W677, 18 h
Method: as §1, §2

[5] = test system: Staphylococcus aureus FDA209P; experiment: as above; assay type: cell-based; details: Table 3, 27° C., 18 hours
Method: as §1, §2

[6] = test system: Shigella dysenteriae JSI1910; experiment: as above; assay type: cell-based; details: JSI1910, 18 h
Method: as §1, §2

E. coli K-12 ML1629 = experiment: as above; assay type: cell-based; details: Escherichia coli, K12ML1629; Table 3; 27° C., 18 hours; read-out: MIC
Method: as §1, §2

Escherichia coli NIHJ = experiment: as above; assay type: cell-based; details: Table 3, 27° C., 18 hours
Method: as §1, §2

E. coli K-12 LA290 R55 = experiment: as above; assay type: cell-based; details: Escherichia coli, K12LA290R55, 18 h
Method: as §1, §2

Bacillus subtilis PCI219 = experiment: as above; assay type: cell-based; details: Table 3, 27° C., 18 hours
Method: as §1, §2

Proteus vulgaris OX19 = experiment: as above; assay type: cell-based
Method: as §1, §2

[7] = test system: Klebsiella pneumoniae PCI602; experiment: as above; assay type: cell-based; details: PCI602, 18 h
Method: as §1, §2

P. aeruginosa TI-13 = experiment: as above; assay type: cell-based; details: Pseudomonas aeruginosa, TI13, 18 h
Method: as §1, §2

Salmonella typhi T-63 = experiment: as above; assay type: cell-based; details: Salmonella enterica, Table 3, 27° C., 18 hours
Method: as §1, §2

S. aureus Smith = experiment: as above; assay type: cell-based; details: Staphylococcus aureus; Table 3; 27° C., 18 hours
Method: as §1, §2

P. aeruginosa H9 = experiment: as above; assay type: cell-based; details: Pseudomonas aeruginosa, H9; Table 3; 27° C., 18 hours; read-out: MIC
Method: as §1, §2

Serratia marcescens = experiment: as above; assay type: cell-based; details: Table 3, 27° C., 18 hours, read-out: MIC
Method: as §1, §2

B. cereus ATCC10702 = experiment: as above; assay type: cell-based; details: Bacillus cereus
Method: as §1

E. coli K-12 ML1410 = experiment: as above; assay type: cell-based; details: Escherichia coli, K12ML1410; Table 3; 27° C., 18 hours
Method: as §1

[8] = Acute toxicity, single intravenous administration to mice; assay type: in vivo; details: mouse, in vivo; single intravenous administration; mice (ICR-strain, 4 weeks old, female); observations for two weeks; read-out: LD50
Excerpt: 50% Lethal dosages (LD50, observations for two weeks) of the new compounds of this invention as estimated upon single intravenous administration to mice (ICR-strain, 4 weeks old, female) are as follows:
50% Lethal dosages (LD50, observations for two weeks) of the new compounds of general formula (XVI) according to the seventh aspect of this invention as estimated upon single intravenous administration to mice (ICR-strain, 4 weeks old, female) are as follows: […]

SMILES	antibacterial activity (in words) [1]	MIC90 ([2]; 27° C., 18 hours) [mg/L]	MIC ([2]; 27° C., 18 hours) [mg/L]	Solubility (Solubility in water)	MIC (P. aeruginosa PST1) [mg/L]	MIC (E. coli JR66/W677) [mg/L]	MIC [5] [mg/L]	MIC [6] [mg/L]	MIC (E. coli K-12 ML1629) [mg/L]	MIC (Escherichia coli NIHJ) [mg/L]	MIC (E. coli K-12 LA290 R55) [mg/L]	MIC (Bacillus subtilis PCI219) [mg/L]	MIC [7] [mg/L]	MIC (P. aeruginosa TI-13) [mg/L]	MIC (Salmonella typhi T-63) [mg/L]	MIC (S. aureus Smith) [mg/L]	MIC (P. aeruginosa H9) [mg/L]	MIC (Serratia marcescens) [mg/L]	MIC (E. coli K-12 ML1410) [mg/L]	LD50 at 336 h [8] [mg/kg]	also measured
CN[C@@H]1[C@@H](O)[C@@H](O[C@@H]2[C@H](N)[C@H](O[C@H]3OC(CN)=CC[C@H]3N)[C@@H](N)C[C@H]2N)OC[C@]1(C)O [5-epi-amino-5-deoxysisomicin]	good antibacterial activity	–	–	–	–	–	–	–	–	–	–	–	–	–	–	–	–	–	–	–	–
CN[C@@H]1[C@@H](O)[C@@H](O[C@@H]2[C@H](F)[C@H](O[C@H]3OC(CN)=CC[C@H]3N)[C@@H](N)C[C@H]2N)OC[C@]1(C)O [5-epi-fluoro-5-deoxysisomicin]	good antibacterial activity	–	–	–	–	–	–	–	–	–	–	–	–	–	–	–	–	–	–	–	–
NC[C@@H]1CC[C@@H](N)[C@@H](O[C@H]2[C@H](O)[C@@H](O[C@H]3O[C@H](CO)[C@@H](O)[C@H](N)[C@H]3N)[C@H](N)C[C@@H]2N)O1 [Compound IIa, 2"-Amino-2"-deoxydibekacin]	–	25 (≈ 55.5 µM)	0.2 to 50 (≈ 0.444 to 111 µM)	easily soluble in water	50 (≈ 111 µM)	3.13 (≈ 6.95 µM)	0.78 (≈ 1.73 µM)	3.13 (≈ 6.95 µM)	3.13 (≈ 6.95 µM)	0.78 (≈ 1.73 µM)	1.56 (≈ 3.46 µM)	≤ 0.2	3.13 (≈ 6.95 µM)	3.13 (≈ 6.95 µM)	1.56 (≈ 3.46 µM)	0.39 (≈ 0.866 µM)	6.25 (≈ 13.9 µM)	12.5 (≈ 27.7 µM)	1.56 (≈ 3.46 µM)	> 100	MIC50 ([2]; 50% of the 50 MRSA strains inhibited, 27° C., 18 hours, read-out: MIC50): 6.25 mg/L (≈ 13.9 µM); MIC ([3]; GN311, 18 h): 1.56 mg/L (≈ 3.46 µM); MIC (S. epidermidis 109; Staphylococcus epidermidis, 109, 18 h): 1.56 mg/L (≈ 3.46 µM); MIC ([4]; A3, 18 h): 1.56 mg/L (≈ 3.46 µM); MIC (Proteus vulgaris OX19; OX19, 18 h): 1.56 mg/L (≈ 3.46 µM); MIC (B. cereus ATCC10702; ATCC10702, 18 h): 3.13 mg/L (≈ 6.95 µM)
NC[C@@H]1CC[C@@H](N)[C@@H](O[C@H]2C[C@@H](O[C@H]3O[C@H](CO)[C@@H](O)[C@H](N)[C@H]3N)[C@H](N)C[C@@H]2N)O1 [Compound IIb, 2"-Amino-5,2"-dideoxydibekacin]	–	25 (≈ 57.5 µM)	0.78 to 25 (≈ 1.8 to 57.5 µM)	easily soluble in water	100 (≈ 230 µM)	6.25 (≈ 14.4 µM)	0.39 (≈ 0.898 µM)	6.25 (≈ 14.4 µM)	6.25 (≈ 14.4 µM)	1.56 (≈ 3.59 µM)	3.13 (≈ 7.2 µM)	≤ 0.2	3.13 (≈ 7.2 µM)	3.13 (≈ 7.2 µM)	3.13 (≈ 7.2 µM)	≤ 0.2	12.5 (≈ 28.8 µM)	25 (≈ 57.5 µM)	3.13 (≈ 7.2 µM)	50 to 100	MIC50 ([2]; MRSA, 18 h): 3.13 mg/L (≈ 7.2 µM); MIC ([3]; GN311, Table 3, 27° C., 18 hours, read-out: MIC): 1.56 mg/L (≈ 3.59 µM); MIC (S. epidermidis 109; Staphylococcus epidermidis, 109, Table 3, 27° C., 18 hours, read-out: MIC): 0.78 mg/L (≈ 1.8 µM); MIC ([4]; A3, Table 3, 27° C., 18 hours, read-out: MIC): 0.78 mg/L (≈ 1.8 µM); MIC (Proteus vulgaris OX19; OX19, Table 3, 27° C., 18 hours, read-out: MIC): 1.56 mg/L (≈ 3.59 µM); MIC (B. cereus ATCC10702; ATCC10702, Table 3, 27° C., 18 hours, read-out: MIC): 1.56 mg/L (≈ 3.59 µM)
